# Patent US12036222B2, “Methods of treating cancers overexpressing CARM1 with EZH2 inhibitors and a PARP inhibitor” (The Wistar Institut of Anatomy and Biology, priority 2018, dated 2024)
# “Also recorded” adds a separate entry of the source.
# Key:
# [1] = tested on: promoter regions of the human DAB2, DLC1, and NOXA genes; test: ChIP-qPCR at promoters of EZH2/BAF155 target genes; assay type: cell-based; details: A1847 cells
# Excerpt: FIGS. 58 to 61 illustrate the results of a ChIP analysis using anti-EZH2 (FIG. 58), anti-H3K27Me3 (FIG. 59), anti-BAF155 (FIG. 60), or anti-RNA Pol II (FIG. 61) antibodies. An isotype matched IgG was used as a negative control. ChIP products were subjected to qPCR analysis using primers specific for the promoter regions of the human DAB2, DLC1, and NOXA genes. Data is representative of three independent experiments. * p<0.001 compared with IgG controls and #p<0.001 compared with parental controls.
# ChIP was performed as described in Tu et al. Developmental Cell(2011) 21:1077-91. The following antibodies were used to perform ChIP: anti-H3K27Me3 (Cell Signaling, Cat. No: 9733), anti-BAF155 (Santa Cruz, Cat. No: sc-9746), anti-RNA polymerase II (Santa Cruz, Cat. No: sc-899) or anti-EZH2 (Cell Signaling, Cat. No: 5246). An isotype matched IgG was used as a negative control. ChIP DNA was analyzed by quantitative PCR against the promoter of the indicated genes using the following primers: DAB2 Forward: 5′-[…]-3′ (SEQ ID NO: 10) and DAB2 Reverse: 5′-[…]-3′ (SEQ ID NO: 11); DLC1 Forward: 5′-[…]-3′ (SEQ ID NO: 12) and DLC1 Reverse: 5′-[…]-3′ (SEQ ID NO: 13); NOXA Forward: 5′-[…]-3′ (SEQ ID NO: 14) and NOXA Reverse: 5′-[…]-3′ (SEQ ID NO: 15); TIMP3 Forward: 5′-[…]-3′ (SEQ ID NO: 16) and TIMP3 Reverse: 5′-[…]-3′ (SEQ ID NO: 17).
# TIMP3 = test: qRT-PCR of BAF155Me target gene in cells; assay type: cell-based, human; details: parental and CARM1 knockout A1847 cells, 10 μM GSK126
# Description: FIG. 57 illustrates the relative mRNA expression of BAF155Me target gene TIMP3, which was determined by qRT-PCR. Parental control and CARM1 knockout A1847 cells were treated with 10 μM GSK126 or vehicle controls. *p<0.001. Mean of three independent experiments with SEM.
# (§1) RNA was isolated by RNeasy Mini Kit (Qiagen). mRNA relative expression for DAB2, DLC1, and PMAIP was determined using SYBR green 1-step iScript (Bio-Rad) with a Life Technologies QuantStudio 3. The primers were: 5′-[…]-3′ (DAB2 forward (SEQ ID NO: 2)) and 5′-[…]-3′ (DAB2 reverse (SEQ ID NO: 3)); 5′-[…]-3′ (DLC1 forward (SEQ ID NO: 4)) and 5′-[…]-3′ (DLC1 reverse (SEQ ID NO: 5)); 5′-[…]-3′ (NOXA forward (SEQ ID NO: 6)) and 5′-[…]-3′ (NOXA reverse (SEQ ID NO: 7)); and 5′-[…]-3′ (TIMP3 forward (SEQ ID NO: 8)) and 5′-[…]-3′ (TIMP3 reverse (SEQ ID NO: 9)).
# CARM1-depleted cells = test: Sensitization to Olaparib in CARM1-depleted cells; assay type: cell-based; details: data not shown
# Excerpt: Therefore, CARM1-expressing EOC can be treated and ultimately eradicated by combinatory targeting EZH2 and PARP using clinically applicable small molecule inhibitors.
# [2] = tested on: A1847 parental and CARM1 knockout cells; test: Epigenetic targeting small molecule set screen (14-day colony formation); assay type: cell-based, human; details: 14 days, normalized to vehicle
# Description: FIG. 26 illustrates that CARM1-expressing cells are selectively sensitized to EZH2 inhibitors. Equal number of parental control or CARM1 knockout […] cells were plated and treated with each of the 23 individual epigenetic inhibitors for 14 days. The media with the inhibitors was refreshed every 3 days. Cell growth was quantified as integrated density using NIH Image J software. Quantification of the average integrated density graphed as a scatter plot. The X-axis indicates the relative growth of treated CARM1 high parental […] cells compared with DMSO vehicle controls. Y-axis indicates the relative growth of treated CARM1 knockout […] cells compared with DMSO vehicle controls. n=4; and error bars represents SEM. FIG. 27 illustrates a table of EZH2 inhibitors that are selective against CARM1 expression. CARM1-high parental controls and CARM1 knockout […] cells were treated with the indicated concentration of the small molecules in a 14-day colony formation assay. Integrated density for each well was calculated using NIH Image J software. The relative growth of the indicated cells was determined by normalizing to the vehicle control treated cells. n=4 and p-value was calculated using a two-tailed t-test. […] parental and CARM1 knockout cells were plated in 24-well plates and treated with 24 epigenetic compounds. Cell medium was changed every three days with appropriate drug doses for 14 days or until control wells became confluent. Colonies were washed twice with PBS and fixed with 10% methanol and 10% acetic acid in distilled water. Fixed colonies were stained with 0.005% crystal violet. Integrated density was measured using NIH ImageJ software as a surrogate for cell growth.
# DAB2, DLC1, and NOXA = test: qRT-PCR of EZH2/BAF155 target genes in cells; assay type: cell-based, human; details: 10 μM GSK126
# Description: FIG. 55 illustrates the relative expression of DAB2, DLC1, and NOXA in parental control and CARM1 knockout A1847 cells that were treated with 10 μM GSK126 or vehicle controls. mRNA expression of the indicated genes was determined by qRT-PCR. *p<0.002 compared with parental controls.
# FIG. 56 illustrates the relative expression of DAB2, DLC1, and NOXA in CARM1 high OVCAR10 cells treated with 10 μM GSK126 or vehicle control for 7 days. Expression of the indicated BAF155/EZH2 target genes was determined by qRT-PCR. *p<0.001. Mean of three independent experiments with SEM.
# as §1
# BAF155Me = test: Immunoblot for BAF155Me levels; assay type: cell-based, human; details: 10 μM GSK126, 7 days
# Description: FIG. 53 illustrates that the indicated CARM1-high cells were infected with the indicated shCARM1 or controls. Expression of CARM1 and BAF155Me levels and loading control (p-actin) was determined by immunoblot. FIG. 54 illustrates that the indicated cells were treated with 10 μM GSK126 or vehicle control for 7 days. Expression of BAF155 and a loading control (0-actin) was determined by immunoblot.
smiles,measurement,setting,value
"CC[C@H](C)n1cc(C)c2c(C(=O)NCc3c(C)cc(C)[nH]c3=O)cc(-c3ccc(N4CCNCC4)nc3)cc21 [GSK126, (S)-1-(sec-butyl)-N-((4,6-dimethyl-2-oxo-1,2-dihydropyridin-3-yl)methyl)-3-methyl-6-(6-(piperazin-1-yl)pyridin-3-yl)-1H-indole-4-carboxamide]",EZH2 association with target genes,[1],without affecting EZH2's association with its target genes
same,H3K27Me3 occupancy at target gene loci,[1],decreased H3K27Me3 occupancy
same,expression of BAF155Me target gene TIMP3,TIMP3,downregulated by CARM KO but not by EZH2 inhibitor GSK126
same,sensitization to Olaparib,CARM1-depleted cells,did not promote sensitization to Olaparib
same,selective growth suppression of CARM1-expressing vs CARM1 KO cells,[2],showed selectivity against CARM1-expressing cells; also recorded: selectively sensitive
same,"expression of identified EZH2/BAF155 target genes (DAB2, DLC1, NOXA)","DAB2, DLC1, and NOXA; A1847, OVCAR10 cells",upregulated
same,additivity of GSK126 treatment and CARM1 knockout on target gene expression,"DAB2, DLC1, and NOXA; CARM1 knockout A1847 cells",did not appear to have additive effects
same,BAF155Me levels,BAF155Me,did not affect BAF155Me levels
